This note sets out measurements from patent publication US7781591B2, “Substituted 3-cyanopyridines as protein kinase inhibitors” (Wyeth LLC, priority 2006, dated 2010).

The target of the test is T1, human PKCθ full length enzyme (Homo sapiens, UniProt Q04759).
T1 construct: human PKCθ full length enzyme (Panvera Cat# P2996); purchased Panvera P2996
T1 sequence (Q04759 whole entry): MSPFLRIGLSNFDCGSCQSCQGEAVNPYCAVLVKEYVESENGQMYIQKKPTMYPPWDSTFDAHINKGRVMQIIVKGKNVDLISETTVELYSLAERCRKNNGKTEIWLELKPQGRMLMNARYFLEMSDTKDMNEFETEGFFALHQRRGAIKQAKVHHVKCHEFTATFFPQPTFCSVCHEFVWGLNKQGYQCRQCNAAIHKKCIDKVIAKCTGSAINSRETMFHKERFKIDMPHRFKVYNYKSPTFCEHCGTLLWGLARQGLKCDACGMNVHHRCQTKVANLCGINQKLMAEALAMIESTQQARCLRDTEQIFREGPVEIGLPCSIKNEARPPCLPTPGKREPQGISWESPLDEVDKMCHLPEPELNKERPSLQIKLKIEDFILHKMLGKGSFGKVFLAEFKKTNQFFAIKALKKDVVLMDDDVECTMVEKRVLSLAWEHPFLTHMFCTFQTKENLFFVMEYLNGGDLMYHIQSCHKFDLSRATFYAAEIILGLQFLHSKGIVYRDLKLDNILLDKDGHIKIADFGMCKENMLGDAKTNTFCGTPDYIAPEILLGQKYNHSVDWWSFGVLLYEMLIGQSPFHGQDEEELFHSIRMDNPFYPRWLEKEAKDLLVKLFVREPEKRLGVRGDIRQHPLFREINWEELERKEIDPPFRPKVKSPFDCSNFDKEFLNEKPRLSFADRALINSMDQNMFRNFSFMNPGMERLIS
In words: PKCθ IMAP assay (fluorescence polarization). The class given is biochemical. The conditions noted are these: human PKCθ full length enzyme, IMAP; average value; read-out: IC50 PKCθ IMAP. On the technique in general: Polarisation of emitted light reports the rotation of a fluorescent probe.
A word on the IC50: it is the concentration needed to halve the response being measured. Turning to `Cc1c(Nc2c(C#N)cncc2-c2cccc(CN3CCCC3)c2)ccc2[nH]ccc12` [Compound 455, 4-[(4-methyl-1H-indol-5-yl)amino]-5-[3-(pyrrolidin-1-ylmethyl)phenyl]nicotinonitrile], the concentration for half-maximal inhibition (IC50) came out at 7 nM.
To `COc1ccc(-c2cncc(C#N)c2Nc2ccc3[nH]ccc3c2)cc1OCCNC1CCCC1` [Compound 243, 5-{3-[2-(cyclopentylamino)ethoxy]-4-methoxyphenyl}-4-(1H-indol-5-ylamino)nicotinonitrile] belongs 230 nM.
With `CCCCNC(=O)Nc1ccc(-c2cncc(C#N)c2Nc2ccc3[nH]ccc3c2C)cc1` [Compound 525, 1-butyl-3-(4-{5-cyano-4-[(4-methyl-1H-indol-5-yl)amino]pyridin-3-yl}phenyl)urea], the 50% inhibitory concentration (IC50) turned out to be 7 nM.
The same measure for `Cc1c(Nc2c(C#N)cncc2-c2cc3cc(CNCc4ccccn4)ccc3o2)ccc2[nH]ccc12` [Compound 398, 4-[(4-methyl-1H-indol-5-yl)amino]-5-(5-{[(pyridin-2-ylmethyl)amino]methyl}-1-benzofuran-2-yl)nicotinonitrile]: 3 nM; for `COc1ccc(-c2cncc(C#N)c2Nc2ccc3[nH]ccc3c2)cc1-c1ccccc1Cl` [Compound 193, 5-(2′-chloro-6-methoxybiphenyl-3-yl)-4-(1H-indol-5-ylamino)nicotinonitrile]: 250 nM; for `COc1ccc(-c2cncc(C#N)c2Nc2cccc3[nH]ccc23)cc1OCCN1CCOCC1` [Compound 299, 4-(1H-indol-4-ylamino)-5-[4-methoxy-3-(2-morpholin-4-ylethoxy)phenyl]nicotinonitrile]: 30 nM.
To `COc1cc(Br)c(-c2cncc(C#N)c2Nc2ccc3[nH]ccc3c2)cc1OC` [Compound 246, 5-(2-bromo-4,5-dimethoxyphenyl)-4-(1H-indol-5-ylamino)nicotinonitrile] belongs 160 nM; to `CC(=O)c1ccc(-c2cccc(-c3cncc(C#N)c3Nc3ccc4[nH]ccc4c3)c2)s1` [Compound 140, 5-[3-(5-acetyl-2-thienyl)phenyl]-4-(1H-indol-5-ylamino)nicotinonitrile], 110 nM; to `COc1ccc(-c2cncc(C#N)c2Nc2ccc3[nH]ccc3c2)cc1-c1ccc(C(=O)NC2CCCC2)cc1` [Compound 192, 5′-[5-cyano-4-(1H-indol-5-ylamino)pyridin-3-yl]-N-cyclopentyl-2′-methoxybiphenyl-4-carboxamide], 280 nM.
To `N#Cc1cncc(-c2ccc3c(c2)OCO3)c1Nc1ccc2[nH]ccc2c1` [Compound 260, 5-(1,3-benzodioxol-5-yl)-4-(1H-indol-5-ylamino)nicotinonitrile] belongs 70 nM; to `Cc1c(Nc2c(C#N)cncc2-c2ccccc2)ccc2[nH]ccc12` [Compound 560, 4-[(4-methyl-1H-indol-5-yl)amino]-5-phenylnicotinonitrile], 27 nM.
Take `COc1ccc(-c2cncc(C#N)c2Nc2ccc3[nH]ccc3c2)cc1OCCNCCc1ccccc1` [Compound 242, 4-(1H-indol-5-ylamino)-5-(4-methoxy-3-{2-[(2-phenylethyl)amino]ethoxy}phenyl)nicotinonitrile]: the concentration for half-maximal inhibition (IC50) came out at 20 nM.
To `Cc1cc2[nH]ccc2cc1Nc1c(C#N)cncc1-c1ccc(OCCN2CCN(C)CC2)cc1` [Compound 496, 4-[(6-methyl-1H-indol-5-yl)amino]-5-{4-[2-(4-methylpiperazin-1-yl)ethoxy]phenyl}nicotinonitrile] belongs 33 nM; to `Cc1cc2[nH]ccc2cc1Nc1c(C#N)cncc1-c1cc2cc(CO)ccc2o1` [Compound 499, 5-[5-(hydroxymethyl)-1-benzofuran-2-yl]-4-[(6-methyl-1H-indol-5-yl)amino]nicotinonitrile], 3 nM.
As to `COc1ccccc1-c1cncc(C#N)c1Nc1ccc2[nH]ccc2c1C` [Compound 557, 5-(2-methoxyphenyl)-4-[(4-methyl-1H-indol-5-yl)amino]nicotinonitrile], the IC50 was determined as 82 nM.
For `CN1CCN(Cc2ccc3oc(-c4cncc(C#N)c4Nc4ccc5[nH]ccc5c4)cc3c2)CC1` [Compound 485, 4-(1H-indol-5-ylamino)-5-{5-[(4-methylpiperazin-1-yl)methyl]-1-benzofuran-2-yl}nicotinonitrile], the half-inhibitory concentration (IC50) was 5 nM.
For the molecule `Cc1c(Nc2c(C#N)cncc2-c2csc(C=O)c2)ccc2[nH]ccc12` [Compound 516, 5-(5-formyl-3-thienyl)-4-[(4-methyl-1H-indol-5-yl)amino]nicotinonitrile], the half-maximal inhibitory concentration (IC50) came to 5 nM.
Regarding `N#Cc1cncc(-c2cccc(-c3ccc(C(=O)NCc4cccnc4)cc3)c2)c1Nc1ccc2[nH]ccc2c1` [Compound 213, 3′-[5-cyano-4-(1H-indol-5-ylamino)pyridin-3-yl]-N-(pyridin-3-ylmethyl)biphenyl-4-carboxamide], the IC50 was determined as 270 nM.
To `CN(C)Cc1ccc2sc(-c3cncc(C#N)c3Nc3cccc4[nH]ccc34)cc2c1` [Compound 224, 5-{5-[(dimethylamino)methyl]-1-benzothien-2-yl}-4-(1H-indol-4-ylamino)nicotinonitrile] belongs 4 nM.
The same measure for `CCOCCNCCOc1ccc(-c2cncc(C#N)c2Nc2ccc3[nH]ccc3c2C)cc1` [Compound 416, 5-(4-{2-[(2-ethoxyethyl)amino]ethoxy}phenyl)-4-[(4-methyl-1H-indol-5-yl)amino]nicotinonitrile]: 6 nM; for “4-[(4-methyl-1H-indol-5-yl)amino]-5-[5-(pyrrolidin-1-ylmethyl)-2-furyl]nicotinonitrile [Compound 410]”: 35 nM.
To `COc1ccc(-c2cncc(C#N)c2NCCC2CCNCC2)cc1OC` [Compound 444, 5-(3,4-dimethoxyphenyl)-4-[(2-piperidin-4-ylethyl)amino]nicotinonitrile] belongs 2460 nM; to `COc1ccc(C=O)cc1-c1cncc(C#N)c1Nc1ccc2[nH]ccc2c1C` [Compound 551, 5-(5-formyl-2-methoxyphenyl)-4-[(4-methyl-1H-indol-5-yl)amino]nicotinonitrile], 28 nM; to `CN(C)c1ccc(-c2cncc(C#N)c2Nc2ccc3cn[nH]c3c2)cc1` [Compound 293, 5-[4-(dimethylamino)phenyl]-4-(1H-indazol-6-ylamino)nicotinonitrile], 36000 nM.
Take `N#Cc1cncc(-c2cccc(-c3ccoc3)c2)c1Nc1ccc2[nH]ccc2c1` [Compound 142, 5-[3-(3-furyl)phenyl]-4-(1H-indol-5-ylamino)nicotinonitrile]: the half-inhibitory concentration (IC50) came to 120 nM.
`N#Cc1cncc(-c2ccncc2)c1Nc1ccc2[nH]ccc2c1` [Compound 261, 4-(1H-indol-5-ylamino)-3,4′-bipyridine-5-carbonitrile]: the half-maximal inhibitory concentration (IC50) was 80 nM.
The same measure for `N#Cc1cncc(-c2cccc(-c3ccc(N)cc3)c2)c1Nc1ccc2[nH]ccc2c1` [Compound 119, 5-(4′-aminobiphenyl-3-yl)-4-(1H-indol-5-ylamino)nicotinonitrile]: 300 nM; for `COc1ccc(-c2cncc(C#N)c2Nc2ccc3[nH]ccc3c2)cc1OCCNCc1cccnc1` [Compound 239, 4-(1H-indol-5-ylamino)-5-(4-methoxy-3-{2-[(pyridin-3-ylmethyl)amino]ethoxy}phenyl)nicotinonitrile]: 80 nM.
